Legend:
[1] = system: pilocarpine-status epilepticus model of chronic TLE; assay: Interictal spikes, in vivo local field potential recordings in DG of anesthetized pilocarpine-treated mice; set-up: species or system mouse
Method: All experiments were approved by the Institut National de la Santé et de la Recherche Médicale animal care and use committee of May 29, 2001 (2001-464) and the European community council directive of Nov. 24, 1986 (86/609/EEC). Mice (FVB/N background) had access to food and water ad libitum and were housed under a 12 h light/dark cycle at 22-24° C. Male GluK2−/− and WT mice (P60-80) were given scopolamine (1 mg/kg) subcutaneously (s.c.) 15 minutes prior to s.c. administration of pilocarpine (200-600 mg/kg). A ramp protocol was used whereby animals were given an initial dose of 200 mg/kg followed by half-doses every 30 minutes until seizures appeared. Both WT and GluK2−/− mice typically experienced at least two seizures prior to entering status epilepticus (SE). Diazepam (10 mg/kg) was administered 45 minutes after onset of SE.
Naïve wildtype (WT) and pilocarpine-treated WT or GluK2−/− mice (5-6 months old) were anaesthetized with xylazine 13 mg/kg/ketamine 66 mg/kg and placed in a stereotaxic frame (supplemental dosing was administered as required). Body temperature was maintained using a heating pad. The scalp was removed and a small bone window was drilled above the hippocampus (2.1 mm posterior to bregma and 1.4 mm lateral to midline over the right hemisphere). For local field potentials recordings performed in anaesthetized mice, a glass electrode ([…]) filled with Ringer solution (135 mM NaCl, 5.4 mM KCl, 1 mM MgCl2, 1.8 mM CaCl2, 5 mM HEPES) was inserted into the DG (depth, 1650 μm). Recordings were performed using a DAM-80 amplifier (low filter, 1 Hz; high filter, 3 KHz; World Precision Instruments, Sarasota, Fla.). UBP310 or vehicle (saline/10% DMSO) was subsequently injected intraperitoneally (i.p.). During recordings and subsequent analysis, the experimenter was blind to the genotype. For intrahippocampal electroencephalographic (EEG) recordings performed in freely-moving animal a stainless steel electrode (Plastic one, Roanoke, Va.) was inserted into the DG under anesthesia (see above). After a 4 day recovery, EEG (amplified (1000×), filtered at 0.16-97 Hz pass, acquired at 500 Hz) was monitored using a telemetric system (Data Sciences International, St. Paul, Minn.) for 4 days, 24 h per day. Intrahippocampal EEG traces represented the difference in potential between the electrode inserted into the DG and an electrode positioned above the cerebellum; food and water were given ad libitum. UBP310 or vehicle (saline/10% DMSO) was injected intraperitoneally twice a day.
In TLE, interictal spikes (ISs) represent one of the best documented biomarkers of epilepsy in patient and animal models (Staley et al., 2005). […]

[2] = system: AMPA receptor; conditions: cited from earlier work
[3] = system: dentate gyrus of organotypic slices; assay: Spontaneous interictal-like activity, extracellular field recordings in pilocarpine-treated organotypic hippocampal slice cultures; format: cell-based, mouse
Method: Hippocampal/entorhinal cortex slices (350 μm) were prepared from pre-genotyped GluK2−/− and WT mice (P9-10, FVB/N background) using a McIlwain tissue chopper. Slices were placed on mesh inserts (Millipore # PICMORG50) inside culture dishes containing 1 ml of the following medium: MEM 50%, HS 25%, HBSS 25%, HEPES 15 mM glucose 6.5 mg/ml and insulin 0.1 mg/ml. Culture medium was changed every 2-3 days and slices maintained in an incubator at 37° C./5% CO2. Pilocarpine (0.5 μM) was added to the medium at 5 D.I.V and removed at 7 D.I.V; slices were utilized for experiments from 9 D.I.V.
Cultured or acute slices were individually transferred to a recording chamber maintained at 30-32° C. and continuously perfused (2 ml/min) with oxygenated normal or adapted ACSF containing 5 μM gabazine. Local field potentials were made in the granule cell layer of the DG with glass electrodes (2-3 MΩ; filled with normal ACSF) using a DAM-80 amplifier (low filter, 1 Hz; […], 3 KHz; World Precision Instruments, Sarasota, Fla.). For evoked synaptic transmission, electrical stimulation was performed with a bipolar NiCh electrode (#762000, AM systems). Whole-cell voltage-clamp recordings of DGCs were made using tight-seal electrodes (5-8 MΩ) filled with an internal solution containing the following (in mM): 135 gluconic acid, 135 CsOH, 10 MgCl2, 0.1 CaCl2, 1 EGTA, 10 HEPES, 2 MgATP, 0.4 NaGTP, and 0.5% biocytin, pH 7.25. We used a Multiclamp 700B amplifier (Molecular Devices): data were filtered at 2 kHz, digitized (20 kHz) with a Digidata 1440A (Molecular Devices) to a PC, and acquired using Clampex 10.1 software (PClamp, Molecular Devices). Signals were analyzed off-line using Clampfit 9.2 (PClamp) and MiniAnalysis 6.0.1 (Synaptosoft, Decatur, Ga.). In organotypic slices, spontaneous EPSCs were recorded at the reversal potential for GABAergic currents (Vh=−70 mV). To characterize the nature and kinetic properties of fast and slow events, miniature EPSCs (mEPSCs) evoked in Sr2+ conditions (external Ca2+ was substituted with 1.2 mM Sr2+) were recorded in DGCs from GluK2−/− and WT slices. Electrical stimulation was made in the molecular layer in the continued presence of 5 μM gabazine and 40 μM D-APV; asynchronous mEPSCs were measured during the 300 ms period after the stimulus artifact. […] In cultured slices, visual representation of time-frequency analysis of local field potentials was performed using Autosignal software (Seasolve 1.7). In brief, field activity was highpass-filtered (>100 Hz) and time-frequency analysis performed using a continuous wavelet (Morlet) that reported integrated power (time-integral-squared amplitude, TISA) across time. Filtered traces were also analyzed by Fourier analysis (Hamming) using Clampfit 9.2. In acute hippocampal slices, intensity of antidromically-evoked bursts was quantified using coastline index (Epsztein et al., 2005).
The role of KARs in spontaneous epileptiform activity was then tested using extracellular field recordings in cultured slices. Recordings were performed in 5 mM K+-containing ACSF and in the presence of 5 μM gabazine in order to enhance neuronal excitability and to reliably record stereotyped spontaneous interictal-like activity (Berdichevsky et al., 2012).

[4] = slices from WT mice, 10 μM SYM2081 or 5 μM UBP310

Cc1cn(C[C@H](N)C(=O)O)c(=O)n(Cc2ccsc2C(=O)O)c1=O [UBP310]
reduction of number of interictal spikes (ISs) ([1]; 60 mg/kg intraperitoneal, WT epileptic mice, anesthetized): 64%
change in IS amplitude ([1]; 60 mg/kg intraperitoneal, WT epileptic mice, data not shown): no change in amplitude
effect on number of ISs in GluK2-/- mice ([1]; 60 mg/kg, GluK2-/- mice, P=0.497): no effect
effect on IS number at dose reduced by 10 times ([1]; injected dose reduced by 10 times from 60 mg/kg, P=0.548): no significant effect
interference with normal synaptic transmission due to the AMPA receptor [2]: does not interfere
effect on interictal-like activity in GluK2-/- mice slices ([3]; GluK2-/- slices, P=0.563, n=7): no effect
alteration of the PD phase (power of paroxysmal discharge) [3, 4]: No significant alteration
reduction of power of the bursts in the late MB phase [3, 4]: 67%
reduction of frequency of interictal-like activity ([3]; slices from WT mice, 10 μM SYM2081 or 5 μM UBP310, 5 mM K+ ACSF, 5 μM gabazine): 49%
frequency of interictal-like activity ([3]; slices from WT mice, 10 μM SYM2081 or 5 μM UBP310, without antagonist 3.2±0.4, mean±SEM): 1.47±0.4 events/min

Reference: US10016424B2, “Method and pharmaceutical composition for use in the treatment of epilepsy” (INSERM (Institut National de la Sante et de la Recherche …, priority 2013, dated 2018)
